{"source": "patent US10364247B2", "about": "“Preparation and use of novel protein kinase inhibitors” (Ruijin Hospital Affiliated to Shanghai Jiao Tong University …, priority 2015, dated 2019)", "system": "CML mice", "experiment": "Mouse CML model, Kaplan-Meier survival", "assay_type": "in vivo", "conditions": "10 mg/kg IA-9 by oral gavage twice a day vs vehicle and 50 mg/kg imatinib; FIG. 2", "experimental": "The number (n) of mice treated in each group was indicated.\nThe activity of IA-9 to treat leukemia was tested in a mouse CML model as described ^4. Bone marrow cells from 5-fluorouracil (5-FU)-treated male BALB/c donor mice 5 days before were infected at a concentration of 1×10^6 cells/mL for 24 hours in a cocktail consisting of DMEM, 15% FCS, 5% WEHI-conditioned medium, 50% viral supernatant, 3 μg/mL polybrene, 2 mmol/L L-glutamine, PSA, 7 ng/mL IL-3, 12 ng/mL IL-6 and 56 ng/mL stem cell factor (SCF; R&D System). The infection was repeated once with freshly made retrovirus-containing cocktail as described above. The infected bone marrow cells were then washed once with phosphate-buffered saline and were injected into lethally irradiated (2 doses of 450 rads each dose administered 4 hours apart) syngeneic mice (female BALB/c; 6 to 8 weeks old) through the tail vein at 4×10^5 cells per mouse. Starting at […] bone marrow transplantation, the recipient mice were treated with vehicle (10% 1-methyl-2-pyrrolidinone:90% PEG-300), 50 mg/kg imatinib or 10 mg/kg IA-9 by oral gavage twice a day."}
{"smiles": "Cc1ccc(Nc2ncc3c(n2)N(C)CN(c2cc(NC(=O)c4cccc(C(F)(F)F)c4)ccc2C)C3)cn1", "note": "[IA-9, N-(4-methyl-3-(1-methyl-7-((6-methylpyridin-3-yl)amino)-1,4-dihydropyrimido[4,5-d]pyrimidin-3(2H)-yl)phenyl)-3-(trifluoromethyl)benzamide]", "values": [{"measurement": "anti-leukemia activity (Kaplan-Meier survival)", "result": "significantly stronger anti-leukemia activity"}]}
